In patent publication US20090209473A1, “Componds and methods for pormoting angiogenesis” (priority 2003, published 2009):
Values joined by “and” are separate entries in the source; they are usually repeats but may differ in a detail not shown here. Equal values may be shown once.

Legend:
[1] = system: Human umbilical vein endothelial cells (HUVEC); assay: HUVEC cluster sprouting in collagen gel (Example 1 in vitro model); format: cell-based; details: for sprout length versus cells receiving VEGF only: co-administered with VEGF
Procedure: Human umbilical vein endothelial cells (HUVEC) were used to evaluate various gamma-secretase inhibitors for potential angiogenesis effect. A 72 cm2 flask of confluent cells (1.5-2 E6 cells) was trypsinized with 3.5 ml trypsin/EDTA. After a maximum of 3 minutes, the cells were rinsed with 1.5 ml serum then centrifuged at 200 g for 3 minutes. After centrifugation, the supernatant was discarded and the cells resuspended in medium (endothelial cell growth medium (Promocell) with additional 10% serum). Cell concentration was diluted to 2.0×10^4 cells/ml in medium supplemented with 20% methocel stock solution. The cells were clustered in hanging drops of 20 μl (400 cells) overnight.
To imbed the cells in gel, the drops were first rinsed with PBS. The clusters were centrifuged at 200 g for 3 minutes and the supernatant removed. Centrifuge tubes were then briefly drawn over a rough surface to loosen the pellet. The clusters were resuspended in ice cold methocel stock solution supplemented with 20% protein. An equal amount of collagen I-gel at 3 mg/ml (Becton-Dickinson) was carefully mixed with the cells. Immediately thereafter, 1000 μl of the gel/cell cluster mixture was added to each well of a preheated (37° C.) 24-well plate. The plate was incubated for 30 minutes at 37° C., 5% CO2 and 100% humidity. One hundred μl of medium, along with the desired test substance and optionally 2.5 μl of 10 μg/ml VEGF were added to each well to a final concentration in the top medium of 250 ng/ml and 25 ng/ml in the well. Negative control cells received medium only and positive control cells received medium and VEGF only. The wells without gel were given 1 ml PBS.
To quantify the results, ten clusters from each […] were photographed. The length of the five longest sprouts on each cluster was measured, and the sum of the sprout length from each cluster calculated. Average values from ten clusters were obtained.
The above-mentioned methocel stock solution was prepared by autoclaving 6 grams of pure methyl cellulose powder (Sigma) in a 500 ml flask containing a magnetic stirrer. After autoclaving the methyl cellulose was dissolved in 250 ml of basal medium preheated to 60° C. for 20 minutes. An additional 250 ml of basal medium at room temperature was added to a final volume of 500 ml and the solution stirred overnight. Finally, the stock solution was aliquotted and cleared through centrifugation at 5000g for 2 hours at room temperature. The 90-95% of the material which became the clear, highly viscous supernatant was used.

HUVEC spheroids = assay: HUVEC spheroid sprouting, cumulative sprout length (Example 5 modified in vitro model); format: cell-based, Human; details: for sprout length versus control across concentrations: 100, 20, 4, 0.8, 0.16, 0.032 μM
Procedure: Similar to the approach described in Example 1, two further compounds were evaluated for their ability to initiate or increase angiogenesis. HUVEC spheroids were prepared by pipetting 400 HUVE cells (PromoCell, Heidelberg, Germany, cultured according to supplier's instructions) into each well of non-adhesive 96-well plates and allowed to aggregate overnight. After harvesting, 48 spheroids were seeded in 900 μl of methocel-collagen solution and pipetted into individual wells in a 24-well plate, allowing for collagen gel polymerization. After 30 minutes, freshly-prepared test compounds were added (prepared by dissolving lyophilized compound at a concentration of 10 mM in DMSO, specific concentrations administered described below) by pipetting 100 μl of a 10-fold concentrated working dilution on top of the gel. At the end of the incubation period the dishes were fixed for 24 hours at 37° C. with paraformaldehyde.
Sprouting intensity of endothelial cells was quantitated by an image analysis system determining the cumulative sprout length per spheroid using an Olympus IX50 inverted microscope and Olympus image analysis software. The mean of the cumulative sprout length of 10 randomly selected spheroids was analyzed as an individual data point.

new born mice = assay: Physiological retinal angiogenesis in new born (non-OIR) mice; format: in vivo; details: administered postnatal days 3 and 4, retinas analysed day 5
Procedure: To investigate if the increased retinal vascularization after DAPT treatment was restricted to the OIR, the effect of DAPT on physiological angiogenesis in new born mice was investigated. DAPT was administered to new born mice on postnatal days 3 and 4 and retinas were analyzed at day 5 as described above. […] This can be observed by comparing the degree of vascularization in the retina of control animals, FIGS. 20 and 21, with that of treated animals as shown in FIGS. 22 and 23. Except for the increased vascular density, the vascular architecture was normal. The growth of the vascular network towards the periphery and the arterio-venous specification were intact for DAPT-treated mice as with controls.

[2] = system: Oxygen-induced retinopathy mice; assay: Oxygen-induced retinopathy mouse model, retinal whole mount analysis; format: in vivo
Excerpt: Oxygen-induced retinopathy mice were used to determine the extent and effect of gamma-secretase inhibitors on the angiogenic process. Mice with oxygen induced retinopathy (OIR mice) are a commonly-used model and are described in the literature (see, Smith et al, supra). They are at times referred to as retinopathy of prematurity models or ROP mice. The model takes advantage of the fact that full term mice pups are born with an immature retinal vascularization which matures during the first three weeks of postnatal growth. Briefly, neonatal mice (NMRI/C57b1) from the same litter were placed, with their nursing mother, in a hyperoxic environment (75% oxygen) at age day seven. After exposure to the hyperoxic environment for 5 days, the 12-day old pups were removed to normal air. In the treated mice, DAPT was administered once daily during age days 12-16. Control pups were treated the same way but injected with the vehicle. At post natal day 17 the mice were euthanized and the retinas were prepared for whole mount immunohistochemistry. Except for the mode of injection, the stock solution of DAPT was prepared and administered essentially as described in Lanz et al., (2003, J. Pharmacol. Exp. Ther. 305:864-71). In short, 5 mg DAPT was dissolved in 25 μl 99.5% EtOH and then dissolved in 475 μl Corn oil (Sigma, Catalog No. C8267). If precipitate formed, the solution was heated to 70° C. for 2-3 minutes. The pups were injected subcutaneously once a day according to: V(μl)=weight (g)*10, that is, 100 mg DAPT/kg body weight. Control pups were injected subcutaneously once a day with the same amount of vehicle (i.e. 5% EtOH in corn oil). Eyes were fixed in 4% PFA in PBS at 4° C. overnight and washed in PBS. […] This can be quantified in the superficial capillary plexus by counting the number of capillary enclosed areas in the peripheral part of the retina.

[3] = 100 μM test compound co-administered with 25 ng/ml VEGF-A
[4] = 100 μM test compound, no VEGF-A

Compound: CC1(C)[C@@H]2CC[C@@](C)(C2)[C@@H]1NS(=O)(=O)c1ccc(F)cc1 [1-(S)-endo-N-(1,3,3)-Trimethylbicyclo[2.2.1]hept-2-yl)-4-fluorophenyl Sulfonamide]
- average sprout length ([1]; 0.16 μM test compound, no VEGF): 280 μm
- increase in length versus control cells ([1]; 0.16 μM, no VEGF): 100%
- average sprout length ([1]; 20 μM test compound co-administered with VEGF): 480 μm

Compound: C[C@H](NC(=O)C(O)c1cc(F)cc(F)c1)C(=O)N[C@H]1N=C(c2ccccc2)c2ccccc2N(C)C1=O (stereo partly drawn) [Compound X, S-3-[N′-(3,5-difluorophenyl-alpha-hydroxyacetyl)-L-alanilyl]amino-2,3-dihydro-1-methyl-5-phenyl-1H-1,4-benzodiazepin-2-one]
- sprouting versus VEGF-A only (HUVEC spheroids; 4 μM test compound co-administered with VEGF-A): increase the sprouting significantly
- cumulative length of all sprouts (CSL) (HUVEC spheroids; [3]): 4289 μm
- cumulative length of all sprouts (CSL) (HUVEC spheroids; [4]): 1630 μm
- sprout length versus control across concentrations (HUVEC spheroids; no VEGF-A): Only the two lowest concentrations tested failed to produce longer sprouts that control

Compound: C[C@H](NC(=O)Cc1cc(F)cc(F)c1)C(=O)N[C@H](C(=O)OC(C)(C)C)c1ccccc1 [DAPT]
- peripheral retinal vascular density (new born mice): increased peripheral vascular density
- vascular architecture of retina (new born mice): normal
- avascular zones in the central retina ([2]; 100 mg/kg s.c. once daily days 12-16, analysed day 17): almost completely lack the vascular-free zones
- number of capillary enclosed areas in the peripheral retina ([2]; 100 mg/kg s.c. once daily days 12-16, day 17, versus vehicle control): near doubling
- vascular (capillary) tufts in retina ([2]; 100 mg/kg s.c. once daily days 12-16, versus control): significant reduction in capillary tufts
- average sprout length ([1]; 0.08 μM test compound, no VEGF, +/- SEM): 330+/−28 μm
- average sprout length ([1]; 0.4 μm DAPT co-administered with VEGF): 550+/−32 μm
- sprout length at increasing levels ([1]; DAPT 0.4, 2, 10 and 50, no VEGF, versus 0.08 μM): further increases in sprout length
- sprout length versus cells receiving VEGF only [1]: increases in sprout length over those with VEGF alone

Compound: CC(C)[C@H](O)C(=O)N[C@@H](C)C(=O)N[C@@H]1C(=O)N(C)CCc2ccccc21 [LY-450, 139, (N)—[(S)-2-hydroxy-3-methyl-butyryl]-1-(L-alaninyl)-(S)-1-amino-3-methyl-4,5,6,7-tetrahydro-2H-3-benzazepin-2-one]
- cumulative length of all sprouts (CSL) (HUVEC spheroids; [3]): 3521 μm
- cumulative length of all sprouts (CSL) (HUVEC spheroids; [4]): 1730 μm
- sprout length versus control across concentrations (HUVEC spheroids; no VEGF-A): lower concentrations were not found to be effective
- sprout length versus VEGF-A only across concentrations (HUVEC spheroids; 100 to 0.032 μM co-administered with 25 ng/ml VEGF-A): Only the lowest concentration tested failed to produce longer sprouts that VEGF-A

Compound: COC(=O)[C@@H](NC(=O)[C@H](CC(C)C)NC(=O)N(Cc1ccccc1)C[C@@H](O)[C@H](Cc1ccccc1)NC(=O)OC(C)(C)C)C(C)C [WPE-III-31C]
- average sprout length ([1]; 0.16 μM test compound co-administered with VEGF): 410 μm
- average sprout length ([1]; 0.16 μM test compound, no VEGF): 230 μm
- sprout length at increasing concentrations ([1]; WPE-III-31C 0.16, 0.8 and 4 μM, no VEGF): only increased with increasing concentrations
- sprout length versus cells receiving VEGF only [1]: significantly longer sprout lengths than the control cells

Compound: VEGF
- cumulative length of all sprouts (CSL) (HUVEC spheroids; VEGF-A only, 25 ng/ml): 1794 μm and 1860+/−100 μm
- average sprout length ([1]; VEGF only (positive control), 25 ng/ml in the well): 460 μm and 370 μm and 320 μm
